# How the values were obtained:
# E. coli 1527 = experiment: MIC against the primary screening panel (broth microdilution); type: cell-based, Escherichia coli; parameters: key: A: a MIC value measurement that is the same as that observed for polymyxin B; a MIC value measured that is lower than the comparable value observed for polymxin B; a MIC value measured that is higher than the comparable value observed for polymyxin B; conditions: relative to polymyxin B
# Experimental: (§1) Antibacterial potency can be assessed by broth microdilution according to CLSI guidelines, plates can be incubated at 37° C., and aeration (rotation at 200 rpm) can be employed. In some assays, surfactant (Survanta, Abbott Laboratories) can be added to give a final concentration of 1, 10 and 40% in caMHB. Native polymyxin A, polymyxin B and the comparator compound of Formula II (polymyxin B decapeptide with an o-chlorophenyl urea tail) were included for comparison.
# K. pneumoniae 933 = experiment: as above; type: cell-based, Klebsiella pneumoniae; parameters: key: A: a MIC value measurement that is the same as that observed for polymyxin B; a MIC value measured that is lower than the comparable value observed for polymxin B; a MIC value measured that is higher than the comparable value observed for polymyxin B; conditions: relative to polymyxin B
# Experimental: as §1
# P. aeruginosa 44 [1] = experiment: as above; type: cell-based, Pseudomonas aeruginosa; parameters: key: A: a MIC value measurement that is the same as that observed for polymyxin B; a MIC value measured that is lower than the comparable value observed for polymxin B; a MIC value measured that is higher than the comparable value observed for polymyxin B; conditions: relative to polymyxin B
# Experimental: as §1
# A. baumannii 1570 = experiment: as above; type: cell-based, Acinetobacter baumannii; parameters: key: A: a MIC value measurement that is the same as that observed for polymyxin B; a MIC value measured that is lower than the comparable value observed for polymxin B; a MIC value measured that is higher than the comparable value observed for polymyxin B; conditions: relative to polymyxin B
# Experimental: as §1
# E. coli [2] = experiment: MIC50/90 against small panels (n = 35); type: cell-based, Escherichia coli; parameters: key: A: a MIC value measurement that is the same as that observed for polymyxin B; a MIC value measured that is lower than the comparable value observed for polymxin B; a MIC value measured that is higher than the comparable value observed for polymyxin B; conditions: small panel n = 35, relative to polymyxin B
# Experimental: as §1
# K. pneumoniae = experiment: MIC50/90 against small panels (n = 35); type: cell-based, Klebsiella pneumoniae; parameters: key: A: a MIC value measurement that is the same as that observed for polymyxin B; a MIC value measured that is lower than the comparable value observed for polymxin B; a MIC value measured that is higher than the comparable value observed for polymyxin B; conditions: small panel n = 35, relative to polymyxin B
# Experimental: as §1
# P. aeruginosa = experiment: MIC50/90 against small panels (n = 35); type: cell-based, Pseudomonas aeruginosa; parameters: key: A: a MIC value measurement that is the same as that observed for polymyxin B; a MIC value measured that is lower than the comparable value observed for polymxin B; a MIC value measured that is higher than the comparable value observed for polymyxin B; conditions: small panel n = 35, relative to polymyxin B
# Experimental: as §1
# A. baumannii = experiment: MIC50/90 against small panels (n = 35); type: cell-based, Acinetobacter baumannii; parameters: key: A: a MIC value measurement that is the same as that observed for polymyxin B; a MIC value measured that is lower than the comparable value observed for polymxin B; a MIC value measured that is higher than the comparable value observed for polymyxin B; conditions: small panel n = 35, relative to polymyxin B
# Experimental: as §1
# P. aeruginosa #44 [3] = experiment: MICs for P. aeruginosa #44 in the presence of surfactant; type: cell-based, Pseudomonas aeruginosa; parameters: key: A: a MIC value measurement that is the same as that observed for polymyxin B; a MIC value measured that is lower than the comparable value observed for polymxin B; a MIC value measured that is higher than the comparable value observed for polymyxin B; conditions: relative to polymyxin B
# Experimental: as §1
# P. aeru = experiment: MIC50 and MIC90, CLSI broth microdilution, panel of Gram negative strains; type: cell-based, Pseudomonas aeruginosa; parameters: key: A: a measured MIC value equal to that of polymyxin B; a measured MIC value less than the corresponding MIC value measured for polymyxin B; a measured MIC value greater than the corresponding MIC value measured for polymyxin B; conditions: relative to polymyxin B; some strains multi-drug resistant
# Experimental: (§2) MIC testing can be performed according to Clinical and Laboratory Standards Institute (CLSI) M7-A7 (2006) broth microdilution methods. Unless otherwise indicated, MIC values are provided in units of micrograms per milliliter.
# (§3) One day prior to testing, individual colonies were isolated by streaking onto rich, non-selective Tryptic Soy agar with 5% lysed sheeps blood (TSAB) with incubation at 35-37° C. for 18-24 hours.
# (§4) Cultures were prepared by touching 3-5 colonies into 3 mL of cation-adjusted Mueller Hinton Broth (caMHB) in a 14-mL tube (caMHB was prepared and sterilized according to manufacturer's specifications).
# (§5) OD600 of growing cultures was measured and adjusted to approximately 10^5 colony forming units per mL (CFU/mL) in caMHB for MIC inoculation (approximately OD600 0.001).
# (§6) Diluted cultures were used to inoculate 50 μL per well in broth microdilution assays (final volume 100 μl per well; compounds were prepared in two-fold dilutions).
# (§7) Plates were incubated 16-20 hours at 37° C., with shaking at 200 rpm.
# (§8) OD600 was determined for all wells. Growth was defined as OD600>0.1. MICs were defined as the lowest concentration producing no visible turbidity (OD600<0.1).
# E. coli [4] = experiment: as above; type: cell-based, Escherichia coli; parameters: key: A: a measured MIC value equal to that of polymyxin B; a measured MIC value less than the corresponding MIC value measured for polymyxin B; a measured MIC value greater than the corresponding MIC value measured for polymyxin B; conditions: relative to polymyxin B; some strains multi-drug resistant
# Experimental: as §2, §3, §4, §5, §6, §7, §8
# K. pneu = experiment: as above; type: cell-based, Klebsiella pneumoniae; parameters: key: A: a measured MIC value equal to that of polymyxin B; a measured MIC value less than the corresponding MIC value measured for polymyxin B; a measured MIC value greater than the corresponding MIC value measured for polymyxin B; conditions: relative to polymyxin B; some strains multi-drug resistant
# Experimental: as §2, §3, §4, §5, §6, §7, §8
# A. baum = experiment: as above; type: cell-based, Acinetobacter baumannii; parameters: key: A: a measured MIC value equal to that of polymyxin B; a measured MIC value less than the corresponding MIC value measured for polymyxin B; a measured MIC value greater than the corresponding MIC value measured for polymyxin B; conditions: relative to polymyxin B; some strains multi-drug resistant
# Experimental: as §2, §3, §4, §5, §6, §7, §8
# P. aeruginosa #44 [5] = experiment: MIC against P. aeruginosa #44 in polystyrene plate; type: cell-based, Pseudomonas aeruginosa; conditions: range of repeated tests
# Experimental: P. aeruginosa #44 were grown in cation adjusted Mueller Hinton Broth (caMHB) (catalog#B12322; Fisher Scientific, Pittsburgh, Pa.) at 37° C. MIC testing was performed according to Clinical and Laboratory Standards Institute [CLSI, formerly National Committee for Clinical Laboratory Standards (NCCLS), Wayne, Pa.] guidelines for broth microdilution. […]
# P. aeruginosa 44 [6] = experiment: Neutropenic mouse lung infection model; type: in vivo
# Experimental: Compound of Formula (Ia) was tested in a murine thigh model. For the thigh model, female CD-1 mice were rendered neutropenic by IP injection on days −4 and −1 with 150 and 100 mg/kg cyclophosphamide, respectively. On day 0 mice were infected with 1×10^7 colony-forming units (cfu) of A. baumannii 1570 in one thigh muscle, and then administered compound SC in a dose ranging from 2 to 12 mg/kg at 1 and 6 hours post-infection.
# The mouse lung model was run in the same manner as the thigh infection model, except that mice were infected IN with 1×10^7 cfu of P. aeruginosa 44 on day 0. Doses administered in the lung study ranged from 8 to 20 mg/kg. The ED−3log10 was based on cfu determination from the lung tissue 24 hours post-infection.
# [7] = Acute toxicity testing in rats; type: in vivo, Sprague-Dawley rat; conditions: 1 mg/kg i.v.
# Experimental: One female Sprague-Dawley rat was administered a 1 mg/kg dose of the test Compound 5. Clinical observations were taken immediately following the administration of compound and at 0.5, 1, 2 and 4 hours post-dose.
# [8] = test system: Gram negative bacterial strains; experiment: Potency and spectrum against a panel of Gram negative bacterial strains; type: cell-based
# Excerpt: The potency and spectrum of Compound 5 was studied using a panel of Gram negative bacterial strains.
# as §2
compound,measurement,setting,value
"CC(C)C[C@H]1NC(=O)[C@H](CCN)NC(=O)[C@@H](NC(=O)[C@@H](CCN)NC(=O)[C@@H](NC(=O)[C@H](CCN)NC(=O)[C@H]2C[C@@H]2c2ccccc2)C(C)O)CCNC(=O)[C@H](C(C)O)NC(=O)[C@H](CCN)NC(=O)[C@H](CCN)NC(=O)[C@H](C(C)O)NC1=O (single isomer, unassigned) [Compound 5]",MIC E. coli 1527,E. coli 1527,A
same,MIC K. pneumoniae 933,K. pneumoniae 933,C
same,MIC P. aeruginosa 44,P. aeruginosa 44 [1],C
same,MIC A. baumannii 1570,A. baumannii 1570,C
same,E. coli MIC50,E. coli [2],C
same,E. coli MIC90,E. coli [2],A
same,K. pneumoniae MIC50,K. pneumoniae,C
same,K. pneumoniae MIC90,K. pneumoniae,C
same,P. aeruginosa MIC50,P. aeruginosa,A
same,P. aeruginosa MIC90,P. aeruginosa,C
same,A. baumannii MIC50,A. baumannii,C
same,A. baumannii MIC90,A. baumannii,C
same,"MIC P. aeruginosa #44, 0% surfactant",P. aeruginosa #44 [3]; 0% surfactant,C
same,"MIC P. aeruginosa #44, 10% surfactant",P. aeruginosa #44 [3]; 10% surfactant,B
same,"MIC P. aeruginosa #44, 40% surfactant",P. aeruginosa #44 [3]; 40% surfactant,B
same,P. aeru MIC 50,P. aeru,A
same,P. aeru MIC 90,P. aeru,C
same,E. coli MIC50,E. coli [4],C
same,E. coli MIC90,E. coli [4],A
same,K. pneu MIC 50,K. pneu,C
same,K. pneu MIC 90,K. pneu,C
same,A. baum MIC 50,A. baum,C
same,A. baum MIC 90,A. baum,C
same,MIC against P. aeruginosa #44 In polystyrene plate,P. aeruginosa #44 [5],1-2 micrograms/ml
same,Lungs cleared within one log10 of limit of detection,P. aeruginosa 44 [6]; 8 through 20 mg/kg dose levels,Lungs cleared within one log10 of limit of detection
same,ED−3log10,"P. aeruginosa 44 [6]; neutropenic mouse lung, P. aeruginosa 44, SC, BID×1 d, cfu 24 hours post-infection",6.35 mg/kg
same,time by which rat had no clinical signs,[7]; 1 female Sprague-Dawley rat,≤ 1 h
same,Acute (anaphylactoid) observations,[7]; female Sprague-Dawley rat,anaphylactoid response was observed
same,"activity against E. coli, K. pneumonia, P. Aeruginosa and A. baumanni isolates",[8],active
same,activity against multi-drug resistant strains,[8],active against multi-drug resistant strains
